Publication PMC10816640, “Discovery of Novel Diphenyl Acrylonitrile Derivatives That Promote Adult Rats’ Hippocampal Neurogenesis” (International Journal of Molecular Sciences, 2024)
Entries after “also recorded” stand apart in the source; their conditions may differ.

Tests used:
[1] = system: progenitor cells in the rodents’ hippocampi; assay: Proliferation stage of neurogenesis: BrdU labeling, rats sacrificed 24 h after BrdU; format: in vivo, rat; settings: i.p. 4.0 mg/kg/day for 28 days, BrdU pulse, vs vehicle; for proliferation-promoting activity (number of BrdU+ positive cells): nine-week-old rats (n = 4)
Source text: (§1) Previous in vitro or in vivo studies mainly focused on stimulating the proliferation effect of the small molecules. In this study, a two-step protocol was employed. First, the stimulating function of the compounds on progenitor cells in the rodents’ hippocampi was examined with using bromodeoxyuridine (BrdU) labeling. Next, the potent compounds were further screened to ascertain their ability to promote the differentiation of neural progenitor cells, as confirmed by dual labeling of BrdU and NeuN (neuronal nuclear antigen).
Adult rats were administered intraperitoneally with the prepared compounds at a dose of 4.0 mg/kg/day for a period of 28 days, followed by a BrdU pulse. After 24 h, the rats were sacrificed, and their brain tissues were isolated and cryosectioned. Immunohistochemical staining was performed and eight brain tissue slices were randomly selected for statistical analyzing.
Eight-week-old (or 10-week-old) SD male rats purchased from Peking University Health Science Center were acclimatized for one week at the Beijing Institute of Technology. All experimental protocols strictly adhered to the regulations governing the management of experimental animals and the animal ethics policy of the Beijing Institute of Technology.
(§2) The compounds were dissolved in reagent-grade soybean oil containing 10% ethanol to reach a drug concentration of 2.8 mg/mL. The rats in the experimental group received intraperitoneal injections of the compounds at a dose of 4.0 mg/kg/d for 28 consecutive days. As a control, the vehicle group was administered injections of reagent-grade soybean oil containing 10% ethanol. BrdU (Sigma-Aldrich, St. louis, MA, USA) solution, prepared in physiological saline at a concentration of 10 mg/mL, was administered to all rats on day 29. Each rat received two injections of BrdU at a dosage of 50 mg/kg, with a 2 h interval between injections. The rats were euthanized 24 h (or 28 days) after the final BrdU injection.
(§3) Two or four rats per group were anesthetized using pentobarbital sodium (70 mg/kg) and subsequently perfused with physiological saline. The brain tissue was carefully dissected and fixed in 4% paraformaldehyde at 4 °C for one week. Next, the brain tissue underwent dehydration using a phosphate-buffered saline (PBS) solution containing 20% to 30% sucrose. Finally, the brain tissue was cryosectioned into slices with a thickness of 30 μm, and eight slices were randomly selected for further analysis.
The assessment of new cell proliferation was conducted using BrdU staining. To eliminate endogenous peroxides, sections were exposed to 1% H2O2 for 30 min at RT. Cellular denaturation was achieved by treating the sections with 2 M HCl at 37 °C for 1 h, followed by rinsing in 0.1 M borate buffer (pH 8.5). Tissue sections were subjected to blocking in a solution consisting of 5% goat serum and 0.5% Triton X-100 in PBS at RT for 1–2 h. The specimens were then incubated overnight at 4 °C with a mouse primary antibody specific to BrdU (diluted at 1:500; Millipore, Billerica, MA, USA). Subsequently, the DAB kit was employed for 2 h of incubation at RT.
(§4) The data were presented as mean ± SEM (standard error of the mean) and visualized using GRAPHPAD PRISM 6 (Graphpad Software, La Jolla, CA, USA). Statistical analysis was conducted utilizing one-way analysis of variance (ANOVA) followed by a post hoc test. Subsequent to the statistical treatment, the observed discrepancies were determined to be statistically significant (p < 0.05).

[2] = system: newborn cells in the subgranular zone; assay: BrdU+ newborn cells, rats sacrificed 28 days after BrdU; format: in vivo, rat; settings: nine-week-old rats (n = 2), i.p. 4.0 mg/kg/day for 28 days, BrdU pulse, Figure 7A
Description: The study employed a rat model, wherein nine-week-old rats were administered intraperitoneally with the compound at a dose of 4.0 mg/kg/day for 28 days and then treated with a pulse of BrdU. Instead of sacrificing the rats 24 h after the BrdU injections, the rats were sacrificed after another 28 days. The brains were then isolated and cryosectioned. Eight randomly selected slices were subjected to immunohistochemical staining. This staining enabled the co-localization of the BrdU-incorporated cells with the NeuN marker, enabling the definition of the compounds that could promote the differentiation of newborn neural progenitor cells into mature functional neurons. The compounds were dissolved in reagent-grade soybean oil containing 10% ethanol to reach a drug concentration of 2.8 mg/mL. The rats in the experimental group received intraperitoneal injections of the compounds at a dose of 4.0 mg/kg/d for 28 consecutive days. As a control, the vehicle group was administered injections of reagent-grade soybean oil containing 10% ethanol. BrdU (Sigma-Aldrich, St. louis, MA, USA) solution, prepared in physiological saline at a concentration of 10 mg/mL, was administered to all rats on day 29. Each rat received two injections of BrdU at a dosage of 50 mg/kg, with a 2 h interval between injections. The rats were euthanized 24 h (or 28 days) after the final BrdU injection. Two or four rats per group were anesthetized using pentobarbital sodium (70 mg/kg) and subsequently perfused with physiological saline. The brain tissue was carefully dissected and fixed in 4% paraformaldehyde at 4 °C for one week. Next, the brain tissue underwent dehydration using a phosphate-buffered saline (PBS) solution containing 20% to 30% sucrose. Finally, the brain tissue was cryosectioned into slices with a thickness of 30 μm, and eight slices were randomly selected for further analysis. The assessment of new cell proliferation was conducted using BrdU staining. To eliminate endogenous peroxides, sections were exposed to 1% H2O2 for 30 min at RT. Cellular denaturation was achieved by treating the sections with 2 M HCl at 37 °C for 1 h, followed by rinsing in 0.1 M borate buffer (pH 8.5). Tissue sections were subjected to blocking in a solution consisting of 5% goat serum and 0.5% Triton X-100 in PBS at RT for 1–2 h. The specimens were then incubated overnight at 4 °C with a mouse primary antibody specific to BrdU (diluted at 1:500; Millipore, Billerica, MA, USA). Subsequently, the DAB kit was employed for 2 h of incubation at RT. The differentiation process of NPCs was visualized through the utilization of the NeuN/BrdU double staining technique. Tissue sections were subjected to an incubation period in a blocking buffer at RT for 1 to 2 h. The specimens were exposed to a rabbit anti-NeuN antibody (diluted at 1:500, Abcam, Cambridge, MA, UK) and a primary antibody, BrdU (diluted at 1:500), overnight at 4 °C. Afterwards, the sections were treated with anti-mouse 488 and anti-rabbit TRITC secondary antibodies for 2 h at RT. The data were presented as mean ± SEM (standard error of the mean) and visualized using GRAPHPAD PRISM 6 (Graphpad Software, La Jolla, CA, USA). Statistical analysis was conducted utilizing one-way analysis of variance (ANOVA) followed by a post hoc test. Subsequent to the statistical treatment, the observed discrepancies were determined to be statistically significant (p < 0.05).

[3] = system: newborn neural progenitor cells (differentiation into mature neurons); assay: Differentiation stage of neurogenesis: NeuN/BrdU double staining, rats sacrificed 28 days after BrdU; format: in vivo, rat; settings: for neurogenesis-promoting activity (number of NeuN+ and BrdU+ cells), differentiation stage: nine-week-old rats (n = 4), i.p. 4.0 mg/kg
Source text: as §1
The study employed a rat model, wherein nine-week-old rats were administered intraperitoneally with the compound at a dose of 4.0 mg/kg/day for 28 days and then treated with a pulse of BrdU. Instead of sacrificing the rats 24 h after the BrdU injections, the rats were sacrificed after another 28 days. The brains were then isolated and cryosectioned. Eight randomly selected slices were subjected to immunohistochemical staining. This staining enabled the co-localization of the BrdU-incorporated cells with the NeuN marker, enabling the definition of the compounds that could promote the differentiation of newborn neural progenitor cells into mature functional neurons.
as §2, §3
The differentiation process of NPCs was visualized through the utilization of the NeuN/BrdU double staining technique. Tissue sections were subjected to an incubation period in a blocking buffer at RT for 1 to 2 h. The specimens were exposed to a rabbit anti-NeuN antibody (diluted at 1:500, Abcam, Cambridge, MA, UK) and a primary antibody, BrdU (diluted at 1:500), overnight at 4 °C. Afterwards, the sections were treated with anti-mouse 488 and anti-rabbit TRITC secondary antibodies for 2 h at RT.
as §4

[4] = system: progenitors in rodents’ hippocampi; set-up: method as in PMID 28525839; settings: cited from earlier work
[5] = system: hCMEC/D3 cells; assay: CCK-8 assay for cytotoxicity; format: cell-based; settings: hCMEC/D3 cell lines, CCK-8, 48 h incubation
Description: hCMEC/D3 cells were obtained from the Cell Resource Center, Peking Union Medical College (PCRC). All cells were acquired in 2023 and were maintained in culture for no more than 10 continuous passages. The cells were cultured in DMEM (11995065, Gibco, Grand Island, NY, USA) supplemented with 10% FBS (164210-50, Procell, Austin, TX, USA), 100 units of penicillin, and […] of streptomycin (PB180120, Procell).
hCMEC/D3 cells (5 × 10^3) were seeded into 96-well plates in 90 μL of DMEM medium containing 10% fetal bovine serum per well. All test compounds were formulated as 10 mM stock solutions in DMSO (final concentration ≤ 0.5%). After overnight incubation, the test compound stock solution was diluted with DMEM medium containing 10% fetal bovine serum to every target concentration, and 10 μL of each was added to each well. Three parallel experiments were set up for each compound. After incubation for 48 h, 10 μL of CCK-8 reagent was added to each well in sequence according to the manufacturer’s instructions. After incubating in a 37 °C incubator for 1–2 h, the absorbance was measured at a wavelength of 450 nm, using a wavelength of 620 nm as a reference, and detected with a ThermoScientific Multiskan FC (Thermo Fisher Scientific). The graphs are representative results, and this experiment was independently repeated three times with similar results.

CC(C)NC(=O)c1ccc(/C=C/c2ccc3c(c2)OCO3)cc1 [39b, (E)-4-(2-(benzo[d][1, 3]dioxol-5-yl)vinyl)-N-isopropylbenzamide]
proliferation-promoting activity (number of BrdU+ newborn cells) ([1]; eleven-week-old rats (n = 2), Figures 3-6, 4 mg/kg/day): significant proliferation-promoting activity; also recorded: activity comparable to that found in amides 8c, 8d, and 29b | proliferative activity over the longer 28 day period (number of BrdU+ cells) [2]: could promote the proliferation of progenitors | neurogenesis-promoting activity (number of NeuN+ and BrdU+ cells, newborn neurons) ([3]; nine-week-old rats (n = 2), i.p. 4.0 mg/kg/day for 28 days, BrdU pulse, Figure 7B): ranked second in terms of activity, without statistical significance

CC(C)CCNc1ncccc1C(=O)N1CCN(Cc2ccccc2)CC1 [NSI-189, reference compound]
proliferation-promoting activity (number of BrdU+ positive cells) ([1]; Figure 8): inactive | neurogenesis-promoting activity (number of NeuN+ and BrdU+ cells), differentiation stage ([3]; Figure 9): no significant neurogenesis-promoting activity

CC(=O)Nc1ccc(/C=C/c2ccc3c(c2)OCO3)cc1 [WS-6, N-trans-3′,4′-methylenedioxystilben-4-yl acetamide]
promoting the proliferation of progenitors and differentiation into neurons [4]: excellent capacity

CC(=O)Nc1ccc(/C=C(\C#N)c2ccc3c(c2)OCO3)cc1 [32a, (Z)-N-(4-(2-(benzo[d][1, 3]dioxol-5-yl)-2-cyanovinyl)phenyl)acetamide]
proliferation-promoting activity (number of BrdU+ positive cells) ([1]; Figure 8, 4 mg/kg/day): significant proliferation-promoting activity; also recorded: exhibited proliferative activity | IC50 [5]: 109 ± 12.9 µM | neurogenesis-promoting activity (number of NeuN+ and BrdU+ cells), differentiation stage ([3]; Figure 9, 4 mg/kg): significant neurogenesis-promoting activity; also recorded: better activity than the clinical drug NSI-189
